Assay results published in ChEMBL document CHEMBL3745607, “Optimization of allosteric MEK inhibitors. Part 2: Taming the sulfamide group balances compound distribution properties” (Bioorg Med Chem Lett, 2016).

How the values were obtained:
A-375 = experiment: Antiproliferative activity against human A375 cells harboring BRAF(V600E) mutation after 72 hrs by cell titer glow cell titer glow FCTGI assay; conditions: A-375, 72 h
cells [1] = conditions: Homo sapiens, HCT-116
Description: Antiproliferative activity against human HCT116 cells harboring K-Ras G13D mutation

Carbonic anhydrase 2 = Carbonic anhydrase 2 (Homo sapiens, UniProt P00918); experiment: Inhibition of human carbonic anhydrase 2
[2] = Volume of distribution at steady state in rat at 0.5 mg/kg, iv or 1 mg/kg, po; assay type: ADME, organism-based; conditions: in vivo, read-out: Vdss
cells [3] = conditions: Homo sapiens, COLO 205
Description: Antiproliferative activity against human COLO205 cells harboring BRAF mutation

[4] = Ratio of AUC in brain to plasma in mouse at 5 mg/kg, iv measured for 0 to 3 hrs; assay type: ADME, organism-based; conditions: brain and plasma, read-out: BPR
MCF7 = experiment: cells; conditions: Homo sapiens
Description: Antiproliferative activity against human MCF7 cells

[5] = Half life in rat at 0.5 mg/kg, iv or 1 mg/kg, po; assay type: ADME, organism-based; conditions: in vivo
[6] = Oral bioavailability in rat 1 mg/kg; assay type: ADME, organism-based; conditions: in vivo
A549 [7] = experiment: cells; conditions: Homo sapiens
Description: Antiproliferative activity against human A549 cells harboring K-Ras mutation

A549 [8] = experiment: Antitumor activity against human A549 cells xenografted in mouse assessed as reduction in tumor area at 1 mg/kg, po qd relative to control; assay type: functional
HepG2 = experiment: cells; conditions: Homo sapiens
Description: Antiproliferative activity against human HepG2 cells harboring N-Ras mutation

[9] = Blood clearance in rat at 0.5 mg/kg, iv or 1 mg/kg, po; assay type: ADME, organism-based
Carbonic anhydrase 1 = Carbonic anhydrase 1 (Homo sapiens, UniProt P00915); experiment: Inhibition of human carbonic anhydrase 1
Sequence of Carbonic anhydrase 1 (P00915 whole entry): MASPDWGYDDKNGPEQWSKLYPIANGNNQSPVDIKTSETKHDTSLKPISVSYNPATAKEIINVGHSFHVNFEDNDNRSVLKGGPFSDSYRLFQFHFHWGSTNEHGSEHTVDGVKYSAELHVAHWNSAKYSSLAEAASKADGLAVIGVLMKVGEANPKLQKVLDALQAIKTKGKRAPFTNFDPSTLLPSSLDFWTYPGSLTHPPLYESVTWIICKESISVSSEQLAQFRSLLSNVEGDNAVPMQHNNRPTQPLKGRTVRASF

[10] = Oral bioavailability in rat 5 mg/kg; assay type: ADME, organism-based; conditions: in vivo
[11] = Half life in rat at 0.5 mg/kg, iv or 5 mg/kg, po; assay type: ADME, organism-based; conditions: in vivo
A549 [12] = experiment: Antitumor activity against human A549 cells xenografted in mouse assessed as reduction in tumor area at 2 mg/kg, po qd relative to control; assay type: functional

Compound | IC50 (A-375) | IC50 (cells [1]) | further results
CN(C)S(=O)(=O)Nc1cccc(Oc2cc(F)c(F)c(Nc3ccc(I)cc3F)c2C(N)=O)c1 | 0.006 µM | 0.042 µM | 
NC(=O)c1c(Nc2ccc(I)cc2F)cc(F)cc1Oc1cccc(CS(N)(=O)=O)c1 |  | 3.5 µM | 
NC(=O)c1c(Nc2ccc(I)cc2F)cc(F)cc1Oc1cccc(CNS(N)(=O)=O)c1 | 0.035 µM | 0.757 µM | 
CC(NS(N)(=O)=O)c1cccc(Oc2cc(F)cc(Nc3ccc(I)cc3F)c2C(N)=O)c1 (configuration not stated) | 0.024 µM | 0.731 µM | 
CCS(=O)(=O)Nc1cccc(Oc2cc(F)c(F)c(Nc3ccc(I)cc3F)c2C(N)=O)c1 | 0.0024 µM | 0.065 µM | 
NC(=O)c1c(Oc2ccc(F)c(NS(N)(=O)=O)c2F)cc(F)c(F)c1Nc1ccc(I)cc1F | 0.032 µM | 2.95 µM | 
COc1cc(NS(N)(=O)=O)cc(Oc2cc(F)cc(Nc3ccc(I)cc3F)c2C(N)=O)c1 | 0.922 µM |  | 
CCOc1ccc(Oc2cc(F)cc(Nc3ccc(I)cc3F)c2C(N)=O)cc1NS(N)(=O)=O | 0.977 µM |  | 
NC(=O)c1c(Oc2cccc(CNS(N)(=O)=O)c2)cc(F)c(F)c1Nc1ccc(I)cc1F | 0.004 µM | 0.124 µM | Vd [2]: 1.9 L/kg; IC50 (cells [3]): 0.009 µM; Kp [4]: < 0.02; IC50 (MCF7): > 10 µM; half-life [5]: 32 h; bioavailability [6]: 78%; IC50 (A549 [7]): 0.185 µM; T/C (A549 [8]): 0.13; IC50 (HepG2): 0.005 µM; clearance [9]: 0.07 L/h/kg
Cc1c(NS(N)(=O)=O)cccc1Oc1cc(F)cc(Nc2ccc(I)cc2F)c1C(N)=O | 0.002 µM | 0.009 µM | 
Cc1c(NS(N)(=O)=O)cccc1Oc1cc(F)c(F)c(Nc2ccc(I)cc2F)c1C(N)=O | 0.0002 µM | 0.002 µM | 
Cn1cnc2c(F)c(Nc3ccc(Br)cc3Cl)c(C(=O)NOCCO)cc21 [SELUMETINIB] |  | 3 µM | bioavailability [10]: 24%; IC50 (cells [3]): 0.069 µM; IC50 (MCF7): > 10 µM; half-life [11]: 4.1 h
Cc1ccc(NS(N)(=O)=O)cc1Oc1cc(F)cc(Nc2ccc(I)cc2F)c1C(N)=O | 0.57 µM |  | 
COc1ccc(Oc2cc(F)cc(Nc3ccc(I)cc3F)c2C(N)=O)cc1NS(N)(=O)=O | 0.731 µM |  | 
NC(=O)c1c(Oc2cccc(CS(N)(=O)=O)c2)cc(F)c(F)c1Nc1ccc(I)cc1F | 0.011 µM | 0.303 µM | 
Cc1ccc(Oc2cc(F)cc(Nc3ccc(I)cc3F)c2C(N)=O)cc1NS(N)(=O)=O | 0.18 µM |  | 
NC(=O)c1c(Oc2ccc(F)c(NS(N)(=O)=O)c2)cc(F)c(F)c1Nc1ccc(I)cc1F | 0.013 µM | 0.277 µM | Vd [2]: 0.5 L/kg; IC50 (cells [3]): 0.042 µM; Kp [4]: < 0.02; IC50 (MCF7): > 10 µM; half-life [5]: 26 h; bioavailability [6]: 84%; IC50 (A549 [7]): 0.314 µM; IC50 (HepG2): 0.002 µM; clearance [9]: 0.02 L/h/kg; T/C (A549 [12]): 0.21
NC(=O)c1c(Nc2ccc(I)cc2F)cc(F)cc1Oc1ccccc1NS(N)(=O)=O | 0.065 µM | 2.4 µM | 

Now from value to compound, other results behind:

IC50 (A-375) | IC50 (cells [1]) | Compound | further results
0.374 µM |  | NC(=O)c1c(Nc2ccc(I)cc2F)cc(F)cc1Oc1ccc(F)c(NS(N)(=O)=O)c1F | 
0.006 µM | 0.087 µM | NC(=O)c1c(Nc2ccc(I)cc2F)cc(F)cc1Oc1cccc(NS(N)(=O)=O)c1Cl | 
0.004 µM | 0.081 µM | CCS(=O)(=O)Nc1cccc(Oc2c(F)c(F)cc(Nc3ccc(I)cc3F)c2C(N)=O)c1 | 
< 0.03 µM | 0.287 µM | CCNS(=O)(=O)Nc1cccc(Oc2cc(F)cc(Nc3ccc(I)cc3F)c2C(N)=O)c1 | 
0.088 µM | 1.8 µM | NCCS(=O)(=O)Nc1cccc(Oc2cc(F)cc(Nc3ccc(I)cc3F)c2C(N)=O)c1 | IC50 (Carbonic anhydrase 2): > 10 µM
0.339 µM |  | NC(=O)c1c(Nc2ccc(I)cc2F)cc(F)cc1Oc1ccc2c(c1)N(S(N)(=O)=O)CCO2 | 
0.483 µM |  | NC(=O)c1c(Nc2ccc(I)cc2F)cc(F)cc1Oc1ccc(Cl)c(NS(N)(=O)=O)c1 | 
0.138 µM |  | NC(=O)c1c(Nc2ccc(I)cc2F)cc(F)cc1Oc1cccc(F)c1NS(N)(=O)=O | 
0.008 µM | 0.152 µM | NC(=O)c1c(Nc2ccc(I)cc2F)cc(F)cc1Oc1cccc(NS(N)(=O)=O)c1Br | 
0.002 µM | 0.05 µM | NC(=O)c1c(Oc2cccc(NS(N)(=O)=O)c2)cc(F)c(F)c1Nc1ccc(I)cc1F | 
0.218 µM |  | Cc1cccc(Oc2cc(F)cc(Nc3ccc(I)cc3F)c2C(N)=O)c1NS(N)(=O)=O | 
 | 0.18 µM | NC(=O)c1c(Nc2ccc(I)cc2F)cc(F)cc1Oc1cccc(NS(N)(=O)=O)c1 | Kp [4]: < 0.02; T/C (A549 [8]): 0.15; IC50 (Carbonic anhydrase 1): 4.8 µM
0.09 µM | 2.51 µM | NC(=O)c1c(Nc2ccc(I)cc2F)cc(F)cc1Oc1ccc(F)c(NS(N)(=O)=O)c1 | 
